Laboratory results from PubChem BioAssay AID2060344 (Molecular Pharmacology Branch, DTP, NCI, 2025).

System: SK-MEL-2 multi-cell spheroids, viability
Experiment: Anticancer human tumor SK-MEL-2 cell line growth inhibition [TAK];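 also: spheroids exposed to drugs for seven days before readout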;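 as to viability, T/C: percent of DMSO vehicle control luminescence so 100% = untreated viability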
Settings: for IC50: curve of first compound; for viability, T/C: stronger effect = lower value
Source text: Combinatorial screen of targeted agents with TAK-243 and ipatasertib in multi-cell type tumor spheroids
A high-throughput screen of multi-cell type tumor spheroids was designed to identify active combinations of targeted small molecules and TAK-243 or ipatasertib. Complex spheroids include a stromal component modeled by human endothelial cells (HUVEC) and fibroblasts modeled by human mesenchymal stem cells (MSCs). The concentration ranges selected for each drug and investigational agent were based upon clinically achievable concentrations if the clinical Cmax of the agent was known.
Compounds. The drugs and investigational agents: TAK-243 (785004), ipatasertib (767898), everolimus (733504), selumetinib (741078), bortezomib (756655), trametinib (758246), ixazomib (758254), vemurafenib (761431), dabrafenib (764134), sapanisertib (764658), alpelisib (765974), and copanlisib (816437), were obtained from the National Cancer Institute (NCI) Developmental Therapeutics Program Chemical Repository. The FDA-approved anticancer drug set is available from the NCI Developmental Therapeutics Program. […] The stock solutions were prepared in dimethyl sulfoxide (DMSO, Sigma-Aldrich, St. Louis, MO, cat. D2650) at 800-fold the tested concentration and stored at -70 degrees C prior to their use. All drugs and investigational agents were tested over a range starting from a high concentration at or near the clinical Cmax and decreasing in half-log increments. If the clinical Cmax for an agent had not been determined, the highest concentration tested was 10 microM.
NCI60 Cell Culture. NCI60 cell lines were obtained from the NCI Developmental Therapeutics Program Tumor Repository. For each lot of cells, the Repository performed Applied Biosystems AmpFLSTR Identifiler testing with PCR amplification to confirm consistency with the published Identifier STR profile for each cell line. Cells were kept in continuous culture for no more than 20 passages. The optimal seeding densities for each of the cell lines at each time point assessed were determined prior to performing the concentration response studies. Briefly, the NCI60 human tumor lines were grown as monolayers in RPMI 1640 medium supplemented with 10% FBS and 2 mmol/L L-glutamine.
An additional 2 lines were from the NCI60 cell line panel including melanomas, MALME-3M and SK-MEL-2. Pooled donor human umbilical vein endothelial cells (HUVEC, Lonza, cat. CC-2519) and human mesenchymal stem cells (hMSC, Lonza, cat. PT-2501) were purchased from Lonza (Walkersville, MD).
PDMR cell lines were grown in complete medium (DC medium): Dulbecco's modified Eagle's medium (DMEM)/F12 supplemented with 5% fetal bovine serum (FBS), 2 mM L-glutamine, 100 U/mL penicillin and 100 µg/ml streptomycin, 0.4 µg/ml hydrocortisone, 10 ng/ml epidermal growth factor (EGF) recombinant human protein, 24 µg/mL adenine, and 0.1 mg/mL primocin. During culture from frozen stock vials, PDMR cells were cultured in the same medium containing 10 µM Y-27632 (see Table 3). The PDCs were cultured in complete DMEM/F12 media without 10 microM Y-27632 dihydrochloride for at least two passages prior to the screen. The pooled donor HUVEC and hMSC were cultured in endothelial cell growth medium 2 (PromoCell, Heidelberg, Germany, cat. C-22011) and mesenchymal stem cell growth medium 2 (PromoCell, cat. C-28009), respectively. For all experiments, HUVEC and hMSC were used at passages </=5.
For the pre-screen, cell seeding densities were determined from a titration spanning the range from 5,000 to 313 cells per well. The mct-spheroids including 60% malignant cells, 25% HUVEC and 15% MSC dispensed as a mixture into U-bottom Ultra-Low Attachment 384-well plates (Corning, NY)
High-throughput Drug Combination Screening.
Prior to their inoculation into 384-well plates, malignant cells, HUVEC, and hMSC were removed from T flasks using TrypLE express (Thermo Fisher Scientific, cat. 12605036) and harvested by centrifugation for 5 min at 233 x g. […]

Compound `COC1CC2CCC(C)C(O)(O2)C(=O)C(=O)N2CCCCC2C(=O)OC(C(C)CC2CCC(OCCO)C(OC)C2)CC(=O)C(C)C=C(C)C(O)C(OC)C(=O)C(C)CC(C)C=CC=CC=C1C` (stereo not given) + CC(C)NCC(C(=O)N1CCN(c2ncnc3c2C(C)CC3O)CC1)c1ccc(Cl)cc1 has an IC50 (second compound 0.3 µM) of 4.54 nM, an IC50 (second compound 0.949 µM) of 0.725 nM and an IC50 (second compound 3 µM) of less than 0.316 nM. The IC50 (second compound 9.49 µM) was less than 0.316 nM, the IC50 (second compound 30 µM) was less than 0.316 nM and the viability, T/C (second compound 0.3 µM, first compound 0.000316 µM) was 72.6%. It also gave a viability, T/C (second compound 0.3 µM, first compound 0.001 µM) of 60.3%, a viability, T/C (second compound 0.3 µM, first compound 0.00316 µM) of 48.9% and a viability, T/C (second compound 0.3 µM, first compound 0.01 µM) of 49.6%. It also gave a viability, T/C (second compound 0.3 µM, first compound 0.0316 µM) of 45.1%, a viability, T/C (second compound 0.3 µM, first compound 0.1 µM) of 42.6% and a viability, T/C (second compound 0.949 µM, first compound 0.000316 µM) of 58.9%. For the same compound, the viability, T/C (second compound 0.949 µM, first compound 0.001 µM) was 47.5%, the viability, T/C (second compound 0.949 µM, first compound 0.00316 µM) was 39.2% and the viability, T/C (second compound 0.949 µM, first compound 0.01 µM) was 38.6%. The viability, T/C (second compound 0.949 µM, first compound 0.0316 µM) was 37.9%, the viability, T/C (second compound 0.949 µM, first compound 0.1 µM) was 36.8% and the viability, T/C (second compound 3 µM, first compound 0.000316 µM) was 45.5%. For the same compound, the viability, T/C (second compound 3 µM, first compound 0.001 µM) was 37.7%, the viability, T/C (second compound 3 µM, first compound 0.00316 µM) was 27.7% and the viability, T/C (second compound 3 µM, first compound 0.01 µM) was 27.3%. It also gave a viability, T/C (second compound 3 µM, first compound 0.0316 µM) of 30.2%, a viability, T/C (second compound 3 µM, first compound 0.1 µM) of 28% and a viability, T/C (second compound 9.49 µM, first compound 0.000316 µM) of 36.7%. The viability, T/C (second compound 9.49 µM, first compound 0.001 µM) was 30.7%, the viability, T/C (second compound 9.49 µM, first compound 0.00316 µM) was 23.2% and the viability, T/C (second compound 9.49 µM, first compound 0.01 µM) was 23.6%. The viability, T/C (second compound 9.49 µM, first compound 0.0316 µM) was 24%, the viability, T/C (second compound 9.49 µM, first compound 0.1 µM) was 21.6% and the viability, T/C (second compound 30 µM, first compound 0.000316 µM) was 30.3%. It also gave a viability, T/C (second compound 30 µM, first compound 0.001 µM) of 27.6%, a viability, T/C (second compound 30 µM, first compound 0.00316 µM) of 20.4% and a viability, T/C (second compound 30 µM, first compound 0.01 µM) of 19.1%. For the same compound, the viability, T/C (second compound 30 µM, first compound 0.0316 µM) was 22% and the viability, T/C (second compound 30 µM, first compound 0.1 µM) was 17.9%.
`Cn1cnc2c(F)c(Nc3ccc(Br)cc3Cl)c(C(=O)NOCCO)cc21` + CC(C)NCC(C(=O)N1CCN(c2ncnc3c2C(C)CC3O)CC1)c1ccc(Cl)cc1 was tested, and the IC50 (second compound 0.3 µM) was less than 9.49 nM, the IC50 (second compound 0.949 µM) was less than 9.49 nM and the IC50 (second compound 3 µM) was less than 9.49 nM. For the same compound, the IC50 (second compound 9.49 µM) was less than 9.49 nM, the IC50 (second compound 30 µM) was less than 9.49 nM and the viability, T/C (second compound 0.3 µM, first compound 0.00949 µM) was 36.2%. For the same compound, the viability, T/C (second compound 0.3 µM, first compound 0.03 µM) was 15.6%, the viability, T/C (second compound 0.3 µM, first compound 0.0949 µM) was 5.04% and the viability, T/C (second compound 0.3 µM, first compound 0.3 µM) was 5.04%. The viability, T/C (second compound 0.3 µM, first compound 0.949 µM) was 2.85%, the viability, T/C (second compound 0.3 µM, first compound 3 µM) was 1.59% and the viability, T/C (second compound 0.949 µM, first compound 0.00949 µM) was 32.6%. The viability, T/C (second compound 0.949 µM, first compound 0.03 µM) was 12.9%, the viability, T/C (second compound 0.949 µM, first compound 0.0949 µM) was 4.14% and the viability, T/C (second compound 0.949 µM, first compound 0.3 µM) was 2.7%. For the same compound, the viability, T/C (second compound 0.949 µM, first compound 0.949 µM) was 1.73%, the viability, T/C (second compound 0.949 µM, first compound 3 µM) was 1.41% and the viability, T/C (second compound 3 µM, first compound 0.00949 µM) was 24.3%. The viability, T/C (second compound 3 µM, first compound 0.03 µM) was 10.2%, the viability, T/C (second compound 3 µM, first compound 0.0949 µM) was 2.52% and the viability, T/C (second compound 3 µM, first compound 0.3 µM) was 1.7%. It also gave a viability, T/C (second compound 3 µM, first compound 0.949 µM) of 1.41%, a viability, T/C (second compound 3 µM, first compound 3 µM) of 0.98% and a viability, T/C (second compound 9.49 µM, first compound 0.00949 µM) of 19.3%. For the same compound, the viability, T/C (second compound 9.49 µM, first compound 0.03 µM) was 9.42%, the viability, T/C (second compound 9.49 µM, first compound 0.0949 µM) was 2.79% and the viability, T/C (second compound 9.49 µM, first compound 0.3 µM) was 1.33%. It also gave a viability, T/C (second compound 9.49 µM, first compound 0.949 µM) of 0.9%, a viability, T/C (second compound 9.49 µM, first compound 3 µM) of 0.56% and a viability, T/C (second compound 30 µM, first compound 0.00949 µM) of 21.7%. The viability, T/C (second compound 30 µM, first compound 0.03 µM) was 8.51%, the viability, T/C (second compound 30 µM, first compound 0.0949 µM) was 2.57% and the viability, T/C (second compound 30 µM, first compound 0.3 µM) was 0.97%. The viability, T/C (second compound 30 µM, first compound 0.949 µM) was 0.37% and the viability, T/C (second compound 30 µM, first compound 3 µM) was 0.35%.
